Reference: patent publication US20210214406A1, “AMYLOSPHEROID (ASPD)-LIKE STRUCTURE AND PHARMACEUTICAL COMPOSITION” (TAO HEALTH LIFE PHARMA CO., LTD., priority 2016, published 2021)

What was measured:
[1] = target: anti-ASPD polyclonal antibody (rpASD1); experiment: Dissociation constant with rpASD1 antibody by surface plasmon resonance; type: binding, rabbit; settings: ASPD immobilized as ligand, rpASD1 as analyte, SPR; result in words
[2] = tested on: New Zealand white rabbits; experiment: Immunogenicity of synthetic ASPD in rabbits (serum dot blot); type: in vivo, rabbit; settings: rabbits immunized six times with 100 μg; Freund's adjuvant, aluminum hydroxide adjuvant, or no adjuvant
Method: New Zealand white rabbits (3 per each condition) were immunized six times with 100 μg of synthetic ASPD using Freund's adjuvant, aluminum hydroxide adjuvant, and no adjuvant. Thereafter, the whole blood was collected and the reactivity to the synthetic ASPD in serum was evaluated by dot blot.

[3] = Storage stability at −80° C. (calibration curve slope in sandwich ELISA with two ASPD-specific antibodies); type: physicochemical; settings: stored at −80° C. for 0 month, 3 months, and 6 months
Method: A cell secreted-type ASPD structure obtained by expressing hAPP695-sw-G33I of Test Example 14 was stored at −80° C. for 0 month, 3 months, and 6 months. The samples thus obtained were subjected to measurement performed with a sandwich ELISA using two types of ASPD-specific antibodies (neutralizing antibodies) to prepare a calibration curve.

old cynomolgus monkey = experiment: Subcutaneous immunization of old cynomolgus monkey with ASPD; type: in vivo

synthetic ASPD: in vitro synthesized spherical Aß assembly produced by slowly stirring a liquid containing wild type Aß1-42
dissociation constant (KD) / reactivity to rpASD1 [1]: equivalent | reactivity to the synthetic ASPD in serum (dot blot) [2]: sufficient reactivity was obtained in all the rabbits even without using adjuvant | storage stability (slope of primary regression line of ELISA calibration curve) [3]: low storage stability | brain glucose metabolism (neural activity) (old cynomolgus monkey): increased
